Experiment [1] has as its target Ox receptor. Kind of experiment: Ox receptor binding, [3H]-rilmenidine displacement in human brain homogenates. As to conditions: for Ki / Selectivity Ox/I2: human brain homogenates; for Ki: Table 5, read-out: Receptor Affinities (nM) Ox; for Selectivity Ox/I2: >1 = selectivity for the Ox receptor.
From the text: Measurement of the affinity and selectivity of such compounds for the a2-adrenoceptor, I2-receptor and Ox receptor binding sites may be carried out by either of two procedures, i.e. ligand displacement studies in membranes of brain and kidney or by autoradiography of brain and kidney sections. In both cases the radioligand is tritiated rilmenidine ([^3H]-RIL).
Male WKY rats are stunned and decapitated. The brains are removed and the forebrain dissected free, then frozen over liquid nitrogen before being stored at −70° C. Human brain cortex samples are obtained within 28 hours of death and frozen over liquid nitrogen before being stored at −70° C. On the day of the measurement the cortex (human or rat) is homogenised in 20 vol ice-cold 50 mM Tris.HCl buffer (pH 7.4) using a Polytron tissue homogeniser. The homogenate is centrifuged at 37000×g for 10 min and the pellet resuspended in 20 vol of fresh buffer and recentrifuged. The pellet is then resuspended in 33 vol of 50 mM Tris.HCl buffer for use in binding assays.
After incubation for 30 min at 25° C., the membranes are recovered by filtration onto Whatman GF/B glass fibre filters presoaked in 1.0% polyethyleneimine. The filters are washed 3 times with cold assay buffer before measurement of bound radioactivity by scintillation counting.
Experiment [2] addresses I2-receptor. Briefly: I2-receptor binding, [3H]-idazoxan displacement in human brain homogenates. As to conditions: for Ki: human brain homogenates, Table 5, read-out: Receptor Affinities (nM) I2.
Experiment [3] concerns the target I2-receptor. Kind of experiment: I2-receptor binding, [3H]-idazoxan displacement in rat brain homogenates. The note with it: for Ki: rat brain homogenates, Table 3, read-out: Receptor Affinities (nM) I2; for affinity for the I2-receptor (in words): rat. As for the experimental part: Male WKY rats are stunned and decapitated.
Brain membranes prepared as above, are incubated in the presence of [^3H]-methoxyidazoxan (52-57 Ci/mmol) 0.5 nM or [^3H]-idazoxan (43-45Ci/mmol) 1.6 nM in Tris.HCl buffer pH 7.4 for α2-adrenoceptor and I2-receptor binding respectively. Inhibition of binding is measured in the presence of increasing amounts of test compound (0.1 nM to 1 mM). Non-specific binding is estimated by addition of 10 μM phentolamine or 100 μM cirazoline respectively. Membrane bound radioactivity is isolated and measured as above by vacuum filtration, washing and scintillation counting. Data is analysed by the “RADLIG” program.

The target of a further experiment is α2-adrenoceptor. Briefly: α2-adrenoceptor binding, [3H]-methoxyidazoxan displacement in rat brain homogenates. The note with it: for Ki: rat brain homogenates, Table 4, read-out: Receptor Affinities (nM) α2; for affinity for the α2-adrenoceptor (in words): rat.
Experiment [4] has as its system Ox receptor. Briefly: Ox receptor binding, [3H]-rilmenidine displacement in rat brain homogenates. The note with it: for Ki: read-out: Receptor Affinities (nM) Ox; for affinity for the Ox receptor (in words): rat.
Method: Receptor Affinities and Selectivities of Selected Drugs for Ox receptors, α2-adrenoceptors and I2-receptors in Rat Brain Homogenates
In both cases the radioligand is tritiated rilmenidine ([^3H]-RIL).
Male WKY rats are stunned and decapitated. The brains are removed and the forebrain dissected free, then frozen over liquid nitrogen before being stored at −70° C. Human brain cortex samples are obtained within 28 hours of death and frozen over liquid nitrogen before being stored at −70° C. On the day of the measurement the cortex (human or rat) is homogenised in 20 vol ice-cold 50 mM Tris.HCl buffer (pH 7.4) using a Polytron tissue homogeniser. The homogenate is centrifuged at 37000×g for 10 min and the pellet resuspended in 20 vol of fresh buffer and recentrifuged. The pellet is then resuspended in 33 vol of 50 mM Tris.HCl buffer for use in binding assays. Where adrenaline is used in binding assays the buffer also contains 25 μM EDTA and 10 μM pargyline.
After incubation for 30 min at 25° C., the membranes are recovered by filtration onto Whatman GF/B glass fibre filters presoaked in 1.0% polyethyleneimine. The filters are washed 3 times with cold assay buffer before measurement of bound radioactivity by scintillation counting. The binding data are analysed by an iterative non-linear computerised curve fitting program “RADLIG” version 4.0 (McPherson, 1983).
Experiment [5] relates to Ox receptor. Kind of experiment: Selectivity data of Table 1 (Ox over alpha2), tissue not stated. Type of experiment: binding. As to conditions: tissue and species not stated. The text has this:
The term “selectivity” as used herein refers to the selectivity of a compound for the Ox receptor over another receptor in mammalian tissue containing said receptors. The selectivity is the reciprocal of the ratio of the affinities (in nM) for each receptor site. Preferably the tissue is human tissue.
The compounds prepared above are represented in Table 1 below together with selectivity data where available.

Where [6] appears, read: rat brain homogenates, reciprocal of the ratio of affinities, >1 = more selective for Ox site.
Setting [7] is: human brains, compared with rat.

Where two headings read alike, the source gives them in different places. A value given as a limit tells only on which side of the number the result lay.

Method for α2-adrenoceptor: Male WKY rats are stunned and decapitated. The brains are removed and the forebrain dissected free, then frozen over liquid nitrogen before being stored at −70° C. […] On the day of the measurement the cortex (human or rat) is homogenised in 20 vol ice-cold 50 mM Tris.HCl buffer (pH 7.4) using a Polytron tissue homogeniser. The homogenate is centrifuged at 37000×g for 10 min and the pellet resuspended in 20 vol of fresh buffer and recentrifuged. The pellet is then resuspended in 33 vol of 50 mM Tris.HCl buffer for use in binding assays.

Turning to `FC(F)(F)C(NC1=NCCO1)C1CC1` (single isomer, unassigned; (+)) [(+)-S8349], at Ox receptor [1], the Ki was determined as 268 nM and the “Selectivity Ox/I2” value is 49. In addition, the Ki on I2-receptor [2] worked out at 13000 nM.
Regarding `FC(F)(F)C(NC1=NCCO1)C1CC1` (single isomer, unassigned; (-)) [(−)-S8350], at Ox receptor [1], the Ki was determined as 199 nM and the “Selectivity Ox/I2” value turned out to be 32. On I2-receptor [2], the Ki amounted to 7700 nM.
In the case of `C[C@@H](NC1=NCCO1)C1CCCCC1` [(R)-(−)-O504, (R-(−)-2-(1-Cyclohexylethylamino)-oxazoline)], the Ki was 300 nM at Ox receptor [1]; 56 nM on I2-receptor [3]; 590 nM on α2-adrenoceptor; 2700 nM at I2-receptor [2]; 31 nM at Ox receptor [4] (rat brain homogenates, Table 3); 32 nM at Ox receptor [4] (rat brain homogenates, Table 4). In addition, the entries for the “Selectivity Ox/I2” value in the experiment with Ox receptor [1] and with Ox receptor [4] were 9 and 1.8, respectively. In addition, the “Selectivity Ox/α2” value in the experiment with Ox receptor [4] is 18.
For `C[C@H](NC1=NCCO1)C1CCCCC1` [(S)-(+)-O504, (S)-(+)-2-(1-Cyclohexylethylamino)-oxazoline], the Ki on Ox receptor [1] is 180 nM; on I2-receptor [3] it was 707 nM; on α2-adrenoceptor, 30 nM; on I2-receptor [2], 2190 nM; at Ox receptor [4] (rat brain homogenates, Table 3), 106 nM; on Ox receptor [4] (rat brain homogenates, Table 4), 20 nM. The entries for the “Selectivity Ox/I2” value in the experiment on Ox receptor [1] and with Ox receptor [4] were 12 and 6.7, respectively. Besides, the “Selectivity Ox/α2” value in the experiment with Ox receptor [4] was 1.5.
Consider `C[C@H](NC1=NCCO1)c1cccc2ccccc12` [(S)-(−)-O506], for which the Ki at Ox receptor [1] amounted to 99 nM; on I2-receptor [2] it was 7580 nM. The “Selectivity Ox/I2” value in the experiment on Ox receptor [1] came to 77.
In the same order, the values of `CCC1CCCC(C)C1NC1=NCCO1` (stereo not shown) [BAY-A6781] are 215 nM, 8250 nM and 38.
As to `c1ccc2nc(C3=NCCN3)ccc2c1` [BU-224, 2-(4,5-dihydroimidaz-2-yl)quinoline], the Ki on Ox receptor [1] was 9580 nM; on I2-receptor [3] it was 0.9 nM; on α2-adrenoceptor it was 5480 nM; on I2-receptor [2], 2.2 nM; on Ox receptor [4] (rat brain homogenates, Table 3) it was over 100000 nM; at Ox receptor [4] (rat brain homogenates, Table 4) it was over 100000 nM. In addition, in the experiment on Ox receptor [1], the “Selectivity Ox/I2” value is listed as 0.0002. Further, the “affinity for the I2-receptor (in words)” value with I2-receptor [3] is recorded as “high affinity (nM)”. The “affinity for the α2-adrenoceptor (in words)” value with α2-adrenoceptor is “poor affinity (μM)”. In addition, the “affinity for the Ox receptor (in words)” value in the experiment on Ox receptor [4] was “poor (μM) affinity”. For the same compound, the “Selectivity Ox/α2” value with Ox receptor [4] (setting [6]) is on record as under 0.1.
On to `CCC1CCCC(CC)C1NC1=NCCO1` (stereo not shown) [Compound O501], for which the Ki at Ox receptor [1] was determined as 38 nM; on I2-receptor [3] it was 6900 nM; at α2-adrenoceptor, 210 nM; on I2-receptor [2], 9100 nM; on Ox receptor [4] (rat brain homogenates, Table 3), 18 nM; on Ox receptor [4] (rat brain homogenates, Table 4), 18 nM. Moreover, the “Selectivity Ox/I2” value with Ox receptor [1] amounted to 239; with Ox receptor [4], 383. In addition, the “Selectivity Ox/α2” value in the experiment with Ox receptor [4] was found to be 12.
In the case of `c1ccc(C(NC2=NCCO2)c2ccccc2)cc1` [Compound O502], the Ki on Ox receptor [1] is 234 nM; at I2-receptor [3] it was 1900 nM; at α2-adrenoceptor, 380 nM; on I2-receptor [2], 686 nM; on Ox receptor [4] (rat brain homogenates, Table 3) it was 160 nM; on Ox receptor [4] (rat brain homogenates, Table 4), 160 nM. The figures for the “Selectivity Ox/I2” value in the experiment on Ox receptor [1] and with Ox receptor [4] were 3 and 12, respectively. In addition, the “Selectivity Ox/α2” value in the experiment with Ox receptor [4] was 2.4.
On to `C1CCC(C(NC2=NCCO2)C2CCCCC2)CC1` [Compound O503], for which the Ki at Ox receptor [1] came out at 70 nM; at I2-receptor [3], 3800 nM; at α2-adrenoceptor, 640 nM; on I2-receptor [2] it was 4800 nM; at Ox receptor [4] (rat brain homogenates, Table 3), 117 nM; on Ox receptor [4] (rat brain homogenates, Table 4) it was 117 nM. The “Selectivity Ox/I2” value in the experiment with Ox receptor [1] was 69; with Ox receptor [4] it was 32. In addition, in the experiment on Ox receptor [4], the “Selectivity Ox/α2” value was 5.5.
On to `Oc1ccc(CCNC2=NCCO2)cc1` [Compound O508, 2-(4-hydroxyphenyl)ethylaminooxazoline], for which the “Selectivity Ox/apha2” value in the experiment on Ox receptor [5] is on record as 100.
Still for that read-out and setting: the result for `CC(CNC1=NCCO1)c1ccc(OCc2ccccc2)cc1` (stereo not shown) [Compound O509, 2-(4-benzyloxyphenyl)propylaminooxazoline] reads 2.0.
For `c1ccc2c(c1)OCC(C1=NCCN1)O2` (stereo not shown) [Idazoxan, 2-(1,4-benzodioxan)-imidazoline], the Ki at Ox receptor [1] came out at 6060 nM; on I2-receptor [3], 2.3 nM; at α2-adrenoceptor, 15.6 nM; at I2-receptor [2] it was 4.8 nM; on Ox receptor [4] (rat brain homogenates, Table 3), 62300 nM; on Ox receptor [4] (rat brain homogenates, Table 4), 62300 nM. In addition, the “Selectivity Ox/I2” value in the experiment with Ox receptor [1] was 0.0008; in the experiment with Ox receptor [4] (setting [6]) it was 0.00004. For the same compound, the “affinity for the I2-receptor (in words)” value with I2-receptor [3] was “high affinity (nM)”. Besides, the “affinity for the α2-adrenoceptor (in words)” value with α2-adrenoceptor is “high affinity (nM)”. In addition, the “affinity for the Ox receptor (in words)” value with Ox receptor [4] is reported as “poor (μM) affinity”. Moreover, the “Selectivity Ox/α2” value with Ox receptor [4] (setting [6]) is recorded as 0.0003.
Regarding `COC1(C2=NCCN2)COc2ccccc2O1` (stereo not shown) [Methoxyidazoxan, 2-(2-methoxy-1,4-benzodioxan)-imidazoline)], the Ki at Ox receptor [1] is 100000 nM; on I2-receptor [3], 24400 nM; at α2-adrenoceptor, 1.9 nM; at I2-receptor [2], over 100000 nM; on Ox receptor [4] (rat brain homogenates, Table 3), 319000 nM; on Ox receptor [4] (rat brain homogenates, Table 4), 319000 nM. Further, the “Selectivity Ox/I2” value in the experiment with Ox receptor [1] was found to be 1; in the experiment with Ox receptor [4] it was 0.08. Besides, the “affinity for the I2-receptor (in words)” value in the experiment with I2-receptor [3] is given as “poor affinity (μM)”. Moreover, the “affinity for the α2-adrenoceptor (in words)” value in the experiment with α2-adrenoceptor is “high affinity (nM)”. The “affinity for the Ox receptor (in words)” value in the experiment on Ox receptor [4] is recorded as “poor affinity (μM)”.
Consider `C1COC(NC(C2CC2)C2CC2)=N1` [Rilmenidine], for which the Ki on Ox receptor [1] turned out to be 396 nM; at I2-receptor [3] it was 36 nM; at α2-adrenoceptor, 410 nM; at I2-receptor [2], 5220 nM; at Ox receptor [4] (rat brain homogenates, Table 3), 15 nM; on Ox receptor [4] (rat brain homogenates, Table 4), 15 nM. The entries for the “Selectivity Ox/I2” value in the experiment with Ox receptor [1] and in the experiment on Ox receptor [4] (setting [6]) were 13 and 2.4, respectively. In addition, the “affinity for the Ox receptor (in words)” value in the experiment on Ox receptor [1] (setting [7]) is recorded as “lower affinity”; in the experiment on Ox receptor [4], “high affinity (nM)”. Also, the “affinity for the I2-receptor (in words)” value in the experiment on I2-receptor [3] is on record as “high affinity (nM)”; in the experiment with I2-receptor [2] (setting [7]) it was “lower affinity”. The “Selectivity Ox/α2” value with Ox receptor [4] (setting [6]) was 27.

These data come from patent US20050119461A1, “Novel receptor, and compounds which bind thereto” (THE UNIVERSITY OF MELBOURNE, priority 1997, published 2005).
